System: weeds
Assay: Glasshouse weed control by HST/HPPD (mesotrione) mixtures, pre-emergence
Type: in vivo
Conditions: for colby: Colby synergy score; for % Damage at 14 DAA, 1 g ai ha^−1 mesotrione / % Damage at 14 DAA, no-mesotrione: N = 3
[1] = AMARE, 125 g/ha + mesotrione 1 g ai/ha
[2] = AMARE, 250 g/ha + mesotrione 1 g ai/ha
[3] = AMARE, 500 g/ha + mesotrione 1 g ai/ha
[4] = ECHCG, 16 g/ha + mesotrione 1 g ai/ha
[5] = ECHCG, 31 g/ha + mesotrione 1 g ai/ha
[6] = ECHCG, 63 g/ha + mesotrione 1 g ai/ha
[7] = ECHCG, 125 g/ha + mesotrione 1 g ai/ha
[8] = ECHCG, 250 g/ha + mesotrione 1 g ai/ha
[9] = ECHCG, 500 g/ha + mesotrione 1 g ai/ha
[10] = IPOHE, 16 g/ha + mesotrione 1 g ai/ha
[11] = IPOHE, 31 g/ha + mesotrione 1 g ai/ha
[12] = IPOHE, 63 g/ha + mesotrione 1 g ai/ha
[13] = IPOHE, 125 g/ha + mesotrione 1 g ai/ha
[14] = IPOHE, 250 g/ha + mesotrione 1 g ai/ha
[15] = IPOHE, 500 g/ha + mesotrione 1 g ai/ha
[16] = SETFA, 16 g/ha + mesotrione 1 g ai/ha
[17] = SETFA, 31 g/ha + mesotrione 1 g ai/ha
[18] = SETFA, 63 g/ha + mesotrione 1 g ai/ha
[19] = SETFA, 125 g/ha + mesotrione 1 g ai/ha
[20] = SETFA, 250 g/ha + mesotrione 1 g ai/ha
[21] = SETFA, 500 g/ha + mesotrione 1 g ai/ha
[22] = SOLNI, 16 g/ha + mesotrione 1 g ai/ha
[23] = SOLNI, 31 g/ha + mesotrione 1 g ai/ha
[24] = SOLNI, 63 g/ha + mesotrione 1 g ai/ha
[25] = SOLNI, 125 g/ha + mesotrione 1 g ai/ha
[26] = SOLNI, 250 g/ha + mesotrione 1 g ai/ha
[27] = SOLNI, 500 g/ha + mesotrione 1 g ai/ha

SMILES: O=c1c(Cl)c(F)[nH]c(F)c1Cl [Haloxidine]
- colby [1]: 0%
- % Damage at 14 DAA, 1 g ai ha^−1 mesotrione [1]: 100%
- % Damage at 14 DAA, no-mesotrione (AMARE, 125 g/ha): 100%
- colby [2]: 0%
- % Damage at 14 DAA, 1 g ai ha^−1 mesotrione [2]: 100%
- % Damage at 14 DAA, no-mesotrione (AMARE, 250 g/ha): 100%
- colby [3]: 0%
- % Damage at 14 DAA, 1 g ai ha^−1 mesotrione [3]: 100%
- % Damage at 14 DAA, no-mesotrione (AMARE, 500 g/ha): 100%
- colby [4]: 7%
- % Damage at 14 DAA, 1 g ai ha^−1 mesotrione [4]: 20%
- % Damage at 14 DAA, no-mesotrione (ECHCG, 16 g/ha): 13%
- colby [5]: −2%
- % Damage at 14 DAA, 1 g ai ha^−1 mesotrione [5]: 23%
- % Damage at 14 DAA, no-mesotrione (ECHCG, 31 g/ha): 25%
- colby [6]: 13%
- % Damage at 14 DAA, 1 g ai ha^−1 mesotrione [6]: 53%
- % Damage at 14 DAA, no-mesotrione (ECHCG, 63 g/ha): 40%
- colby [7]: 5%
- % Damage at 14 DAA, 1 g ai ha^−1 mesotrione [7]: 78%
- % Damage at 14 DAA, no-mesotrione (ECHCG, 125 g/ha): 73%
- colby [8]: −8%
- % Damage at 14 DAA, 1 g ai ha^−1 mesotrione [8]: 83%
- % Damage at 14 DAA, no-mesotrione (ECHCG, 250 g/ha): 92%
- colby [9]: 7%
- % Damage at 14 DAA, 1 g ai ha^−1 mesotrione [9]: 95%
- % Damage at 14 DAA, no-mesotrione (ECHCG, 500 g/ha): 88%
- colby [10]: 0%
- % Damage at 14 DAA, 1 g ai ha^−1 mesotrione [10]: 0%
- % Damage at 14 DAA, no-mesotrione (IPOHE, 16 g/ha): 0%
- colby [11]: 0%
- % Damage at 14 DAA, 1 g ai ha^−1 mesotrione [11]: 0%
- % Damage at 14 DAA, no-mesotrione (IPOHE, 31 g/ha): 0%
- colby [12]: −7%
- % Damage at 14 DAA, 1 g ai ha^−1 mesotrione [12]: 8%
- % Damage at 14 DAA, no-mesotrione (IPOHE, 63 g/ha): 15%
- colby [13]: −10%
- % Damage at 14 DAA, 1 g ai ha^−1 mesotrione [13]: 52%
- % Damage at 14 DAA, no-mesotrione (IPOHE, 125 g/ha): 62%
- colby [14]: −13%
- % Damage at 14 DAA, 1 g ai ha^−1 mesotrione [14]: 67%
- % Damage at 14 DAA, no-mesotrione (IPOHE, 250 g/ha): 80%
- colby [15]: 3%
- % Damage at 14 DAA, 1 g ai ha^−1 mesotrione [15]: 87%
- % Damage at 14 DAA, no-mesotrione (IPOHE, 500 g/ha): 83%
- colby [16]: 10%
- % Damage at 14 DAA, 1 g ai ha^−1 mesotrione [16]: 10%
- % Damage at 14 DAA, no-mesotrione (SETFA, 16 g/ha): 0%
- colby [17]: 7%
- % Damage at 14 DAA, 1 g ai ha^−1 mesotrione [17]: 32%
- % Damage at 14 DAA, no-mesotrione (SETFA, 31 g/ha): 25%
- colby [18]: 8%
- % Damage at 14 DAA, 1 g ai ha^−1 mesotrione [18]: 58%
- % Damage at 14 DAA, no-mesotrione (SETFA, 63 g/ha): 50%
- colby [19]: 2%
- % Damage at 14 DAA, 1 g ai ha^−1 mesotrione [19]: 90%
- % Damage at 14 DAA, no-mesotrione (SETFA, 125 g/ha): 88%
- colby [20]: 0%
- % Damage at 14 DAA, 1 g ai ha^−1 mesotrione [20]: 95%
- % Damage at 14 DAA, no-mesotrione (SETFA, 250 g/ha): 95%
- colby [21]: 2%
- % Damage at 14 DAA, 1 g ai ha^−1 mesotrione [21]: 98%
- % Damage at 14 DAA, no-mesotrione (SETFA, 500 g/ha): 97%
- colby [22]: 30%
- % Damage at 14 DAA, 1 g ai ha^−1 mesotrione [22]: 47%
- % Damage at 14 DAA, no-mesotrione (SOLNI, 16 g/ha): 0%
- colby [23]: 21%
- % Damage at 14 DAA, 1 g ai ha^−1 mesotrione [23]: 60%
- % Damage at 14 DAA, no-mesotrione (SOLNI, 31 g/ha): 27%
- colby [24]: 18%
- % Damage at 14 DAA, 1 g ai ha^−1 mesotrione [24]: 75%
- % Damage at 14 DAA, no-mesotrione (SOLNI, 63 g/ha): 48%
- colby [25]: 3%
- % Damage at 14 DAA, 1 g ai ha^−1 mesotrione [25]: 92%
- % Damage at 14 DAA, no-mesotrione (SOLNI, 125 g/ha): 87%
- colby [26]: 4%
- % Damage at 14 DAA, 1 g ai ha^−1 mesotrione [26]: 100%
- % Damage at 14 DAA, no-mesotrione (SOLNI, 250 g/ha): 95%
- colby [27]: 0%
- % Damage at 14 DAA, 1 g ai ha^−1 mesotrione [27]: 100%
- % Damage at 14 DAA, no-mesotrione (SOLNI, 500 g/ha): 100%

Reference: patent US20110173718A1, “HERBICIDE TOLERANT PLANTS” (SYNGENTA CROP PROTECTION, INC., priority 2008, published 2011)
